Reference: PubChem BioAssay AID248 (DTP/NCI, 2004)
Where “and” joins values, the source holds several entries; their conditions need not be identical. Identical values can stand only once. Inconclusive results and toxic doses are left out. Cut-off read from the data, not from the text of the source: active = T/C of 150% or more; inactive = T/C below 125%.

System: L1210 leukemia ip in BDF1 mice, survival T/C
Assay: NCI In Vivo Anticancer Drug Screen. Data for tumor model L1210 Leukemia (intraperitoneal) in B6D2F1 (BDF1) mice
Conditions: endpoint: mean survival time, higher = longer survival
How it was run: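 Transplanted-tumor mice were given test agent; controls received vehicle only. Survival readings from the two groups were divided (treated over control).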

[1] = dose: 100.0 mg/kg/injection, schedule: Q01DX001 (ip), vehicle: Klucel (hydroxypropylcellulose) (HPC)
[2] = dose: 200.0 mg/kg/injection, schedule: Q01DX001 (ip), vehicle: Klucel (hydroxypropylcellulose) (HPC)
[3] = dose: 400.0 mg/kg/injection, schedule: Q01DX001 (ip), vehicle: Klucel (hydroxypropylcellulose) (HPC)
[4] = dose: 50.0 mg/kg/injection, schedule: Q01DX001 (ip), vehicle: carboxymethylcellulose (CMC)
[5] = dose: 100.0 mg/kg/injection, schedule: Q04DX003 (ip), vehicle: saline with Tween-80
[6] = dose: 100.0 mg/kg/injection, schedule: Q01DX009 (ip), vehicle: Klucel (hydroxypropylcellulose) (HPC)
[7] = dose: 200.0 mg/kg/injection, schedule: Q01DX009 (ip), vehicle: Klucel (hydroxypropylcellulose) (HPC)
[8] = dose: 400.0 mg/kg/injection, schedule: Q01DX009 (ip), vehicle: Klucel (hydroxypropylcellulose) (HPC)
[9] = dose: 50.0 mg/kg/injection, schedule: Q01DX009 (ip), vehicle: Klucel (hydroxypropylcellulose) (HPC)
[10] = dose: 100.0 mg/kg/injection, schedule: Q04DX003 (ip), vehicle: Klucel (hydroxypropylcellulose) (HPC)
[11] = dose: 200.0 mg/kg/injection, schedule: Q04DX003 (ip), vehicle: Klucel (hydroxypropylcellulose) (HPC)

Measured: T/C

CC1CN1CC1CO1 (stereo not given)
inactive: dose: 0.5 mg/kg/injection, schedule: Q01DX001 (ip), vehicle: saline 98 % of control | dose: 0.5 mg/kg/injection, schedule: Q01DX009 (ip), vehicle: acetone 97 % of control | dose: 0.5 mg/kg/injection, schedule: Q04DX003 (ip), vehicle: acetone 104 % of control | dose: 1.0 mg/kg/injection, schedule: Q01DX001 (ip), vehicle: saline 95 % of control | dose: 1.0 mg/kg/injection, schedule: Q01DX009 (ip), vehicle: acetone 96 % of control | dose: 1.0 mg/kg/injection, schedule: Q04DX003 (ip), vehicle: acetone 101 % of control | dose: 2.0 mg/kg/injection, schedule: Q01DX001 (ip), vehicle: saline 98 % of control | dose: 2.0 mg/kg/injection, schedule: Q01DX009 (ip), vehicle: acetone 100 % of control | dose: 2.0 mg/kg/injection, schedule: Q04DX003 (ip), vehicle: acetone 104 % of control | dose: 2.97 mg/kg/injection, schedule: Q01DX009 (ip), vehicle: acetone 97 % of control | dose: 4.5 mg/kg/injection, schedule: Q01DX009 (ip), vehicle: acetone 97 % of control | dose: 6.75 mg/kg/injection, schedule: Q01DX009 (ip), vehicle: acetone 115 % of control | dose: 9.9 mg/kg/injection, schedule: Q01DX009 (ip), vehicle: acetone 102 % of control | dose: 15.0 mg/kg/injection, schedule: Q01DX009 (ip), vehicle: acetone 100 % of control | dose: 22.5 mg/kg/injection, schedule: Q01DX009 (ip), vehicle: acetone 94 % of control

COc1ccc(N=CC(=O)c2ccc(C)cc2)c([N+](=O)[O-])c1
inactive: [1] 107 % of control | [2] 104 % of control | [3] 95 % of control

CCCCCCCCCCCNC=O
inactive: dose: 100.0 mg/kg/injection, schedule: Q01DX001 (ip), vehicle: saline 103 % of control | dose: 200.0 mg/kg/injection, schedule: Q01DX001 (ip), vehicle: saline 101 % of control | dose: 400.0 mg/kg/injection, schedule: Q01DX001 (ip), vehicle: saline 101 % of control

COC(=O)c1nc(-c2ccc3c(n2)C(=O)C(N)=C(OC)C3=O)c(N)c(-c2ccc(OC)c(OC)c2O)c1C
inactive: dose: 0.5 mg/kg/injection, schedule: Q01DX015 (ip), vehicle: water 116 % of control | dose: 1.0 mg/kg/injection, schedule: Q01DX001 (ip), vehicle: water 110 % of control | dose: 1.0 mg/kg/injection, schedule: Q01DX015 (ip), vehicle: water 119 % of control | dose: 2.0 mg/kg/injection, schedule: Q01DX001 (ip), vehicle: water 109 % of control | dose: 2.0 mg/kg/injection, schedule: Q01DX015 (ip), vehicle: water 98 % of control | dose: 3.0 mg/kg/injection, schedule: Q01DX001 (ip), vehicle: carboxymethylcellulose (CMC) 104 % of control | dose: 6.0 mg/kg/injection, schedule: Q01DX001 (ip), vehicle: carboxymethylcellulose (CMC) 110 % of control | dose: 12.0 mg/kg/injection, schedule: Q01DX001 (ip), vehicle: carboxymethylcellulose (CMC) 105 % of control | dose: 24.0 mg/kg/injection, schedule: Q01DX001 (ip), vehicle: carboxymethylcellulose (CMC) 104 % of control | dose: 48.0 mg/kg/injection, schedule: Q01DX001 (ip), vehicle: carboxymethylcellulose (CMC) 105 % of control

CCCCSSC(Cl)(Cl)Cl
inactive: dose: 6.25 mg/kg/injection, schedule: Q01DX009 (ip), vehicle: carboxymethylcellulose (CMC) 96 % of control and 104 % of control | dose: 12.5 mg/kg/injection, schedule: Q01DX001 (ip), vehicle: carboxymethylcellulose (CMC) 98 % of control | dose: 12.5 mg/kg/injection, schedule: Q01DX009 (ip), vehicle: carboxymethylcellulose (CMC) 101 % of control and 89 % of control | dose: 12.5 mg/kg/injection, schedule: Q04DX003 (ip), vehicle: carboxymethylcellulose (CMC) 96 % of control | dose: 25.0 mg/kg/injection, schedule: Q01DX001 (ip), vehicle: carboxymethylcellulose (CMC) 95 % of control | dose: 25.0 mg/kg/injection, schedule: Q01DX009 (ip), vehicle: carboxymethylcellulose (CMC) 96 % of control | dose: 25.0 mg/kg/injection, schedule: Q04DX002 (ip), vehicle: carboxymethylcellulose (CMC) 95 % of control and 107 % of control | dose: 25.0 mg/kg/injection, schedule: Q04DX003 (ip), vehicle: carboxymethylcellulose (CMC) 96 % of control | [4] 88 % of control | dose: 50.0 mg/kg/injection, schedule: Q04DX002 (ip), vehicle: carboxymethylcellulose (CMC) 95 % of control and 101 % of control | dose: 50.0 mg/kg/injection, schedule: Q04DX003 (ip), vehicle: carboxymethylcellulose (CMC) 103 % of control and 91 % of control | dose: 200.0 mg/kg/injection, schedule: Q04DX002 (ip), vehicle: carboxymethylcellulose (CMC) 86 % of control

CC1(C)CC2(OC2c2cccc([N+](=O)[O-])c2)C(=O)c2ccccc21 (stereo not given)
inactive: [1] 90 % of control | [2] 95 % of control | [3] 92 % of control

COc1ccc2c(c1)C(=O)c1ccccc1-2
inactive: [5] 101 % of control | dose: 200.0 mg/kg/injection, schedule: Q04DX003 (ip), vehicle: saline with Tween-80 98 % of control | dose: 400.0 mg/kg/injection, schedule: Q04DX003 (ip), vehicle: saline with Tween-80 109 % of control

COc1cc(/C=N\Nc2ccccc2)ccc1OC(=O)c1ccccc1
inactive: dose: 100.0 mg/kg/injection, schedule: Q04DX002 (ip), vehicle: saline with Tween-80 91 % of control | dose: 200.0 mg/kg/injection, schedule: Q04DX002 (ip), vehicle: saline with Tween-80 91 % of control | dose: 400.0 mg/kg/injection, schedule: Q04DX002 (ip), vehicle: saline with Tween-80 98 % of control

C=C(C)C1Cc2c(ccc3c(=O)c4c(oc23)C(O)Oc2cc(OC)c(OC)cc2-4)O1 (stereo not given)
inactive: [6] 93 % of control | [7] 95 % of control | [8] 97 % of control

Cc1cc(C#N)n(O)c1
inactive: [9] 103 % of control | [6] 100 % of control | [7] 101 % of control

Cc1cc(Cl)ccc1OC(=O)Nc1cccc(Cl)c1Cl
inactive: [6] 102 % of control | [7] 89 % of control | [8] 94 % of control

O=C(O)c1ccccc1C(=O)OC1CC2C=CC1C21CC1 (stereo not given)
inactive: [9] 98 % of control | [6] 96 % of control and 95 % of control | [10] 95 % of control | [7] 100 % of control and 113 % of control | [11] 104 % of control and 106 % of control | dose: 400.0 mg/kg/injection, schedule: Q04DX003 (ip), vehicle: Klucel (hydroxypropylcellulose) (HPC) 101 % of control

O=C(O)C1(Br)c2ccccc2-c2ccccc21
inactive: [4] 100 % of control | dose: 50.0 mg/kg/injection, schedule: Q04DX003 (ip), vehicle: Klucel (hydroxypropylcellulose) (HPC) 100 % of control | dose: 100.0 mg/kg/injection, schedule: Q01DX001 (ip), vehicle: carboxymethylcellulose (CMC) 100 % of control | [10] 94 % of control | dose: 200.0 mg/kg/injection, schedule: Q01DX001 (ip), vehicle: carboxymethylcellulose (CMC) 96 % of control | [11] 96 % of control | dose: 400.0 mg/kg/injection, schedule: Q01DX001 (ip), vehicle: carboxymethylcellulose (CMC) 105 % of control

CNC(=O)Oc1cccc(NC(=O)OCC#CCCl)c1
inactive: dose: 100.0 mg/kg/injection, schedule: Q01DX001 (ip), vehicle: saline with Tween-80 92 % of control | dose: 200.0 mg/kg/injection, schedule: Q01DX001 (ip), vehicle: saline with Tween-80 90 % of control | dose: 400.0 mg/kg/injection, schedule: Q01DX001 (ip), vehicle: saline with Tween-80 90 % of control

CSc1cc(-c2ccccc2)c2ccccc2[n+]1C
inactive: dose: 12.5 mg/kg/injection, schedule: Q04DX003 (ip), vehicle: saline with Tween-80 112 % of control | dose: 25.0 mg/kg/injection, schedule: Q01DX009 (ip), vehicle: saline with Tween-80 116 % of control | dose: 25.0 mg/kg/injection, schedule: Q04DX003 (ip), vehicle: saline with Tween-80 112 % of control | dose: 50.0 mg/kg/injection, schedule: Q04DX003 (ip), vehicle: saline with Tween-80 90 % of control | [5] 94 % of control

C[C@]12CC[C@@H]3c4ccc(OC(=O)Cc5ccc(N(CCCl)CCCl)cc5)cc4CC[C@H]3[C@@H]1CC[C@@H]2OC(=O)Cc1ccc(N(CCCl)CCCl)cc1
inactive: dose: 100.0 mg/kg/injection, schedule: Q01DX001 (sc), vehicle: steriod suspending solution 97 % of control | dose: 200.0 mg/kg/injection, schedule: Q01DX001 (sc), vehicle: steriod suspending solution 102 % of control | dose: 400.0 mg/kg/injection, schedule: Q01DX001 (sc), vehicle: steriod suspending solution 102 % of control
